Test [1] concerns Daudi (Burkitt lymphoma) cells. The test can be described thus: Cell viability (CellTiter-Glo), Daudi. In kind it is cell-based. To be noted: Homo sapiens, 72 h, cellular ATP, read-out: Daudi LC50. On the procedure: (§1) With selective SIRT2 inhibitors in hand, we proceeded to evaluate cytotoxicity of our compounds in Daudi, Raji (Burkitt lymphoma) and OCI-Ly8-LAM-53 (OCI, a representative of several Diffuse Large B-Cell Lymphoma lines; DLBCL) cell lines. Briefly, cells were plated in 96-well plates and treated with inhibitors at desired concentrations for 72 h. Cellular viability was determined by measuring the amount of cellular ATP using CellTiter-Glo assay kit (Promega) and normalized against DMSO-treated controls. […] Selected inhibitors were further evaluated in an expanded panel of cancer cell lines including breast cancer (MCF-7 and MDA-MB231), prostate cancer (PC-3) and glioblastoma multiforme (U-251). […] However, the trend in potency as a function of the structure is consistent with the results obtained against lymphoma cell lines. […] . Cell lines were obtained from ATCC (Manassas, VA, USA) and were grown under standard conditions as recommended. For viability assays, 3000 cells per well were dispensed into 96-well plates and treated with test compounds (final DMSO concentration 0.25%). Cells were incubated with test compounds (or DMSO controls) for 72 h or 5 days as noted at 37 °C in 5% CO2 and viability was determined using the CellTiter-Glo Assay (Promega Corp.) according to manufacturer’s instructions.

In test [2] the test system is Raji (Burkitt lymphoma) cells. Description: Cell viability (CellTiter-Glo), Raji. It is filed as cell-based. To be noted: Homo sapiens, 72 h, cellular ATP, read-out: Raji LC50. On the procedure: as §1
The subject of test [3] is OCI-Ly8-LAM-53 (OCI, DLBCL) cells. Description: Cell viability (CellTiter-Glo), OCI. It is filed as cell-based. To be noted: 72 h, cellular ATP; read-out: OCI LC50. On the procedure:
as §1

Test [4] concerns the target T1, SIRT1 (Homo sapiens, UniProt Q96EB6).
T1 sequence (Q96EB6 1-747): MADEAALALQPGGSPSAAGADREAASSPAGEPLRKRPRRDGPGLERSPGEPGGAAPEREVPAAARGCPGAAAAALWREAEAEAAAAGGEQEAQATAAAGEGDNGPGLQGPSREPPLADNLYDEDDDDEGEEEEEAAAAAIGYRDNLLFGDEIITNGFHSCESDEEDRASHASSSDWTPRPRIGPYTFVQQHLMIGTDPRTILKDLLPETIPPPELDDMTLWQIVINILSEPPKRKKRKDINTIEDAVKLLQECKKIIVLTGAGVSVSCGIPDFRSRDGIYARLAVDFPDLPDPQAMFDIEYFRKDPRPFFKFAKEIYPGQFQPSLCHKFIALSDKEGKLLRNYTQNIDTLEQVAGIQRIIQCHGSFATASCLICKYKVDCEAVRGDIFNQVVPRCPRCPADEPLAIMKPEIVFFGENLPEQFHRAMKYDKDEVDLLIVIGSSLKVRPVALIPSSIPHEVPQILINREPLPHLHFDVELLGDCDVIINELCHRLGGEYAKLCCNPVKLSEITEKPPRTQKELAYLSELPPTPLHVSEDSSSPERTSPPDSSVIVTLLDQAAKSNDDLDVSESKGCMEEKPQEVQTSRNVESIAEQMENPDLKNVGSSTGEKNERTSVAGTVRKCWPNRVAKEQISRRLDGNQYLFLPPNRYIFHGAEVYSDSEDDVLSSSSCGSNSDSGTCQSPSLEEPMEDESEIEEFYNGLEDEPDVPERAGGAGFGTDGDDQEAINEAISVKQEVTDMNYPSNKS
The test can be described thus: SIRT-Glo enzyme inhibition assay, SIRT1. The following applies: for inhibition at 50 µM: read-out: SIRT1 percentage inhibition at 50 µM compound, 50 µM compound.

Test [5] concerns the target T2, SIRT2 (Homo sapiens, UniProt Q8IXJ6).
T2 sequence (Q8IXJ6 1-389): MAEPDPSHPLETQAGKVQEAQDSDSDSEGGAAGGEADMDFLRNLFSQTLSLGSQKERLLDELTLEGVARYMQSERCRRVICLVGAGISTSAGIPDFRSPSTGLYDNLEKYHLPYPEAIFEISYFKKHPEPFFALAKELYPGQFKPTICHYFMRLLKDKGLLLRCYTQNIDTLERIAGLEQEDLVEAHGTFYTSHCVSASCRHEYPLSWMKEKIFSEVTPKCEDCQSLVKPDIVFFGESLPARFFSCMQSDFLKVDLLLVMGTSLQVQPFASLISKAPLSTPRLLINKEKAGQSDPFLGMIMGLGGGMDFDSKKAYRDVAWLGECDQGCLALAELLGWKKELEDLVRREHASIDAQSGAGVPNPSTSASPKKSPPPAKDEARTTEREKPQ
Description: SIRT-Glo enzyme inhibition assay, SIRT2. The following applies: for IC50: SIRT2 IC50; for inhibition at 50 µM: read-out: SIRT2 percentage inhibition at 50 µM compound, 50 µM compound.

The target in test [6] is T3, SIRT3 (Homo sapiens, UniProt Q9NTG7).
T3 sequence (Q9NTG7 1-399): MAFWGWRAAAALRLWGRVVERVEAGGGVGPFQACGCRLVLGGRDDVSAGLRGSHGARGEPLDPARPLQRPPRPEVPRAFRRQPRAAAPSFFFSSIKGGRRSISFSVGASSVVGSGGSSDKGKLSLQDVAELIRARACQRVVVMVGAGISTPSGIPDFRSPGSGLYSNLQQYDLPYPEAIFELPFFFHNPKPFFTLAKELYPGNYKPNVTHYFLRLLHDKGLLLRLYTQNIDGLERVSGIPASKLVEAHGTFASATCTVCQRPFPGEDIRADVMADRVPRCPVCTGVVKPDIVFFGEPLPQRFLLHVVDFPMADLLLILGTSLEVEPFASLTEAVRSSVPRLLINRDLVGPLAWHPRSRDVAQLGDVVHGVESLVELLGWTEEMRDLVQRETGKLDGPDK
Description: SIRT-Glo enzyme inhibition assay, SIRT3. The following applies: for inhibition at 50 µM: read-out: SIRT3 percentage inhibition at 50 µM compound, 50 µM compound.

Test [7] deals with U-251 glioblastoma multiforme cells. The test can be described thus: Cell viability (CellTiter-Glo), U-251. In kind it is cell-based. To be noted: Homo sapiens, cellular ATP, read-out: U251 LC50. On the procedure: as §1
The subject of test [8] is OCI DLBCL cells. Description: Annexin V staining assay. To be noted: 5 µM.

The structures appear in SMILES notation. Values joined by “and” are separate entries in the source; they are usually repeats but may differ in a detail not shown here. Identical values can stand only once.

As for `NC(=O)C(Cc1c(O)ccc2cc(Br)ccc12)C(=O)c1ccc(Cl)cc1` (stereo not shown) [Compound 19, 2-[(6-Bromo-2-hydroxynaphthalen-1-yl)methyl]-3-(4-chlorophenyl)-3-oxopropanamide], the CC50 amounted to 5 µM in test [1], 7.3 µM in test [2] and 8.2 µM in test [3]. The inhibition at 50 µM stood at 0% in test [4], 95% in test [5] and 30% in test [6]. Besides, the IC50 in test [5] was 2.79 µM and 2.8 µM.
As to `NC(=O)C(Cc1c(O)ccc2cc(Br)ccc12)C(=O)c1ccc(Br)cc1` (stereo not shown) [Compound 22, 2-[(6-Bromo-2-hydroxynaphthalen-1-yl)methyl]-3-(4-bromo)-3-oxopropanamide], the CC50 in test [1] came out at 7 µM; in test [2], 7.8 µM; in test [3] it was 1.6 µM. The inhibition at 50 µM came to 7% in test [4], 93% in test [5] and 42% in test [6]. The molecule further yielded a concentration for half-maximal inhibition (IC50) in test [5] of 2.5 µM.
Consider `CNC(=O)C(Cc1c(O)ccc2cc(Br)ccc12)C(=O)c1ccc(C(F)(F)F)cc1` (stereo not shown) [Compound 33, 2-[(6-Bromo-2-hydroxynaphthalen-1-yl)methyl]-N-methyl-3-oxo-3-[4-(trifluoromethyl)phenyl]propenamide], for which the CC50 in test [1] amounted to 14.5 µM; in test [2], 18.5 µM; in test [3], 16.4 µM. The IC50 in test [5] is 0.59 µM. In addition, the inhibition at 50 µM in test [5] worked out at 97%; in test [6], 6%.
For the molecule `O=C(NCCCO)C(Cc1c(O)ccc2cc(Br)ccc12)C(=O)c1cccc(Br)c1` (stereo not shown) [Compound 37, 2-[(6-Bromo-2-hydroxynaphthalen-1-yl)methyl]-3-(3-bromophenyl)-N-(3-hydroxypropyl)-3-oxopropanamide], the inhibition at 50 µM in test [4] worked out at 28%; in test [5], 86%; in test [6], 46%. The molecule further came in with an IC50 in test [5] of 7.62 µM.
On to `NC(=O)CCNC(=O)C(Cc1c(O)ccc2cc(Br)ccc12)C(=O)c1cccc(Br)c1` (stereo not shown) [Compound 43, 2-[(6-Bromo-2-hydroxynaphthalen-1-yl)methyl]-3-(3-bromophenyl)-N-(2-carbamoylethyl)-3-oxopropanamide], for which the values for the CC50 in test [1] and in test [2] were 15.8 µM and 19.4 µM, respectively. Further, the inhibition at 50 µM in test [4] worked out at 0%; in test [5], 89%; in test [6] it was 20%. Moreover, the midpoint of inhibition in test [5], the IC50, lay at 0.96 µM.
As to `O=C(NCCO)C(Cc1c(O)ccc2cc(Br)ccc12)C(=O)c1ccc(Cl)cc1` (stereo not shown) [Compound 47, 2-[(6-Bromo-2-hydroxynaphthalen-1-yl)methyl]-3-(4-chlorophenyl)-N-(2-hydroxyethyl)-3-oxopropanamide], the values for the CC50 in test [2] and in test [3] were 20.2 µM and 9.7 µM, respectively. The inhibition at 50 µM in test [4] worked out at 0%; in test [5], 98%; in test [6] it was 5%. The IC50 in test [5] was determined as 0.96 µM.
With `NC(=O)CCNC(=O)C(Cc1c(O)ccc2cc(Br)ccc12)C(=O)c1ccc(Cl)cc1` (stereo not shown) [Compound 50, 2-[(6-Bromo-2-hydroxynaphthalen-1-yl)methyl]-N-(2-carbamoylethyl)-3-(4-chlorophenyl)-3-oxopropanamide], the CC50 came out at 19.9 µM in test [2] and 11.7 µM in test [3]. Moreover, the inhibition at 50 µM was 4% in test [4], 99% in test [5] and 17% in test [6]. Also, the IC50 in test [5] was found to be 0.65 µM.
As for `NC(=O)CCNC(=O)C(Cc1c(O)ccc2cc(Br)ccc12)C(=O)c1ccc(Br)cc1` (stereo not shown) [Compound 51, 2-[(6-Bromo-2-hydroxynaphthalen-1-yl)methyl]-3-(4-bromophenyl)-N-(2-carbamoylethyl)-3-oxopropanamide], the CC50 in test [1] is 19.2 µM; in test [2], 16.7 µM; in test [3], 10.2 µM; in test [7], 25.9 µM. For the same molecule, the inhibition at 50 µM turned out to be 20% in test [4], 98% in test [5] and 14% in test [6]. Besides, in test [5], the half-inhibitory concentration (IC50) was 0.58 µM.
`NC(=O)CCNC(=O)C(Cc1c(O)ccc2cc(Br)ccc12)C(=O)c1ccc(C(F)(F)F)cc1` (stereo not shown) [Compound 52, 2-[(6-Bromo-2-hydroxynaphthalen-1-yl)methyl]-N-(2-carbamoylethyl)-3-oxo-3-[4-(trifluoromethyl)phenyl]-propenamide]: the CC50 was determined as 28.2 µM in test [1], 19.4 µM in test [2] and 25.5 µM in test [3]. Also, the values for the inhibition at 50 µM in test [4], in test [5] and in test [6] were 0%, 93% and 21%, respectively. In addition, the IC50 in test [5] came to 0.65 µM.
For the molecule `NC(=O)CCNC(=O)C(Cc1c(O)ccc2cc(Br)ccc12)C(=O)c1cccc(C(F)(F)F)c1` (stereo not shown) [Compound 53], the “selectivity for SIRT2 over SIRT1” value in test [4] (SIRT2 versus SIRT1) is greater than 400 fold. The inhibition at 50 µM in test [4] is 8%; in test [5], 91%; in test [6], 16%. In test [5], this molecule yielded an IC50 of 1.57 µM. Also, in test [6] (SIRT2 versus SIRT3), the “selectivity for SIRT2 over SIRT3” value is given as greater than 800 fold.
Regarding `COc1cc([C@@H]2c3cc4c(cc3[C@@H](O[C@@H]3O[C@@H]5CO[C@@H](C)O[C@H]5[C@H](O)[C@H]3O)[C@H]3COC(=O)[C@H]23)OCO4)cc(OC)c1O` [Etoposide, etoposide, reference compound], in test [8], the “Q1 (necrotic cell death) cell population” value is reported as 5.1%, the “Q2 (apoptotic cells) cell population” value was 59.8%, the Q3 cell population worked out at 26.8% and the Q4 cell population stood at 8.3%.

The values are drawn from article PMC7036909, “Discovery of Selective SIRT2 Inhibitors as Therapeutic Agents in B-Cell Lymphoma and Other Malignancies” (Molecules, 2020).
